Experiments:
Conditions in all cases: 0.1 µM; binder
SNARK = SNARK (Homo sapiens, UniProt Q9H093)
DRAK1 = DRAK1 (Homo sapiens, UniProt Q9UEE5)
DCAMKL1 = DCAMKL1 (Homo sapiens, UniProt O15075)
GRK4 = GRK4 (Homo sapiens, UniProt P32298)
NDR1 = NDR1 (Homo sapiens, UniProt Q15208)
FLT3(ITD,D835V) = FLT3(ITD,D835V) (Homo sapiens, UniProt P36888, D835V/ITD)
PIK3CA(H1047Y) = PIK3CA(H1047Y) (Homo sapiens, UniProt P42336, H1047Y)
BMPR1B = BMPR1B (Homo sapiens, UniProt O00238)
ARK5 = ARK5 (Homo sapiens, UniProt O60285)
Chain of ARK5 (O60285 whole entry): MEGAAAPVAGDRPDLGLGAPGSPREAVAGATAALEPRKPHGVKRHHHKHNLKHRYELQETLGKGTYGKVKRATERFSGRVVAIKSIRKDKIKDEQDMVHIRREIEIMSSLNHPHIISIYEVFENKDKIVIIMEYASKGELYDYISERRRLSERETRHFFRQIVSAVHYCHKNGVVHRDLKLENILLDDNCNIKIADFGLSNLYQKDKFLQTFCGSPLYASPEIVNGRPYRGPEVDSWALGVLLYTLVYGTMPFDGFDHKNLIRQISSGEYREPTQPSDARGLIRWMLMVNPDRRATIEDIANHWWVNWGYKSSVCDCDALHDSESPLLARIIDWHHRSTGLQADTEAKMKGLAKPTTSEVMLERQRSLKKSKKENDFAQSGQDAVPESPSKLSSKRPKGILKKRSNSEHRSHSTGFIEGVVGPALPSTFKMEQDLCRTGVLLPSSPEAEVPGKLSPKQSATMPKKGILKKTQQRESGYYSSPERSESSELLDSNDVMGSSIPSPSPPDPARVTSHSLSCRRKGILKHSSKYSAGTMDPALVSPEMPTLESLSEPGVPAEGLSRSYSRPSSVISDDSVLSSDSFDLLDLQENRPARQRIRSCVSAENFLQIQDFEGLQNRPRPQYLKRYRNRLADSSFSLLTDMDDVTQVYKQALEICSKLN

BMPR1A = BMPR1A (Homo sapiens, UniProt P36894)
TRPM6 = TRPM6 (Homo sapiens, UniProt Q9BX84)
Chain of TRPM6 (Q9BX84 whole entry): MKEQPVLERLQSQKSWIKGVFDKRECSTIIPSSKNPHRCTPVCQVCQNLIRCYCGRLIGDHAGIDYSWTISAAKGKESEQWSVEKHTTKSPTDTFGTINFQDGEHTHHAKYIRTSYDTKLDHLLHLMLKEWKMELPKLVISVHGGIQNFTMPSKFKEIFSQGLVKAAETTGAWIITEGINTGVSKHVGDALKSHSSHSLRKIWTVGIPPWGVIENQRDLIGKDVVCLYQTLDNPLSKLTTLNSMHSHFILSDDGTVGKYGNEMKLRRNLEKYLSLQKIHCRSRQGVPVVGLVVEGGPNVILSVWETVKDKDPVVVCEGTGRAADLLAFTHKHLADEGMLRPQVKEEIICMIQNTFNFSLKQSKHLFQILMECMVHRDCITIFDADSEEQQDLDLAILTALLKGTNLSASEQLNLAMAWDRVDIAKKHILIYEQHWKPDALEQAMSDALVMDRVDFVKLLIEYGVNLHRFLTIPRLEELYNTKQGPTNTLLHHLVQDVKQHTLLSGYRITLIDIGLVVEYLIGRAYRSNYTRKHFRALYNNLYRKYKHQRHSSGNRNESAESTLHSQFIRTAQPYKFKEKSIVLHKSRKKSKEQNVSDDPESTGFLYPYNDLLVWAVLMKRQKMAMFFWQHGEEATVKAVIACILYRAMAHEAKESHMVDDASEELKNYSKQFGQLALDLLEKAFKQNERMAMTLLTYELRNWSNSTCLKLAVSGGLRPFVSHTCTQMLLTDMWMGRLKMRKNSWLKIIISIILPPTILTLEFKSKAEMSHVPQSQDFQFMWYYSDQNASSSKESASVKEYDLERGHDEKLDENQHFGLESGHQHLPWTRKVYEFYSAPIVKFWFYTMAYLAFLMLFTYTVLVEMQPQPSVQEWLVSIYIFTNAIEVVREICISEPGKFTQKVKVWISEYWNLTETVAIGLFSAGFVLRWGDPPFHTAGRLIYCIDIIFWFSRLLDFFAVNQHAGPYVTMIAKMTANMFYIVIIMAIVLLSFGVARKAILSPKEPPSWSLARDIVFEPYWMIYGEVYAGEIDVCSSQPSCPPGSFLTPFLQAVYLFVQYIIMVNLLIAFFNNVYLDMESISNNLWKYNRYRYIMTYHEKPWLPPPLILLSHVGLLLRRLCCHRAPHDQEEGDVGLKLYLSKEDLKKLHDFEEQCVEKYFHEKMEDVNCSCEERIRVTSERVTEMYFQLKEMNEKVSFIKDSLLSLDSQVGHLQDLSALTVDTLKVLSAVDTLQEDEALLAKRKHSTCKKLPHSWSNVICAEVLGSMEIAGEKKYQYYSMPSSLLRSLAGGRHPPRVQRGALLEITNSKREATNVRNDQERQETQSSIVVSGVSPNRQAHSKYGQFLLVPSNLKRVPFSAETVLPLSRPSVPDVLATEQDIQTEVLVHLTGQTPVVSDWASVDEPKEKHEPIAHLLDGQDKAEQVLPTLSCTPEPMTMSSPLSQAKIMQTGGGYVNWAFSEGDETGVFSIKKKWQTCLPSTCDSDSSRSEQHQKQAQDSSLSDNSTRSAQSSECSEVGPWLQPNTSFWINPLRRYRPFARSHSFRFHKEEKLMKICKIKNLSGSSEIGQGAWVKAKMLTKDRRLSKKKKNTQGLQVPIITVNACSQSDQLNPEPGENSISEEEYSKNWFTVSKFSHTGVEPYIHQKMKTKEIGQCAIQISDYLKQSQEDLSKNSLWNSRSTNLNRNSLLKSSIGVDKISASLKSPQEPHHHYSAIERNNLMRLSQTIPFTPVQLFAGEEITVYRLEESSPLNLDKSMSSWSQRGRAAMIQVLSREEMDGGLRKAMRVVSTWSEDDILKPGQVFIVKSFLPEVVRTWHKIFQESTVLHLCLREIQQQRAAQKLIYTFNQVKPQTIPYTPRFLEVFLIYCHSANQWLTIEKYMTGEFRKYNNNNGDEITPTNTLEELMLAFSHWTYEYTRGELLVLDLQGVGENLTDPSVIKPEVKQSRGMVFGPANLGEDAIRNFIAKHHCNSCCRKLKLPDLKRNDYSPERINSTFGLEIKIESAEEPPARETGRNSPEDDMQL

p38-alpha = p38-alpha (Homo sapiens, UniProt Q16539)
MAP3K12 = MAP3K12 (Homo sapiens, UniProt Q12852)
PKN2 = PKN2 (Homo sapiens, UniProt Q16513)
TLK2 = TLK2 (Homo sapiens, UniProt Q86UE8)
FGFR3 = FGFR3 (Homo sapiens, UniProt P22607)
PIP5K1C = PIP5K1C (Homo sapiens, UniProt O60331)
VRK2 = VRK2 (Homo sapiens, UniProt Q86Y07)
AKT2 = AKT2 (Homo sapiens, UniProt P31751)
ASK1 = ASK1 (Homo sapiens, UniProt Q99683)
Chain of ASK1 (Q99683 whole entry): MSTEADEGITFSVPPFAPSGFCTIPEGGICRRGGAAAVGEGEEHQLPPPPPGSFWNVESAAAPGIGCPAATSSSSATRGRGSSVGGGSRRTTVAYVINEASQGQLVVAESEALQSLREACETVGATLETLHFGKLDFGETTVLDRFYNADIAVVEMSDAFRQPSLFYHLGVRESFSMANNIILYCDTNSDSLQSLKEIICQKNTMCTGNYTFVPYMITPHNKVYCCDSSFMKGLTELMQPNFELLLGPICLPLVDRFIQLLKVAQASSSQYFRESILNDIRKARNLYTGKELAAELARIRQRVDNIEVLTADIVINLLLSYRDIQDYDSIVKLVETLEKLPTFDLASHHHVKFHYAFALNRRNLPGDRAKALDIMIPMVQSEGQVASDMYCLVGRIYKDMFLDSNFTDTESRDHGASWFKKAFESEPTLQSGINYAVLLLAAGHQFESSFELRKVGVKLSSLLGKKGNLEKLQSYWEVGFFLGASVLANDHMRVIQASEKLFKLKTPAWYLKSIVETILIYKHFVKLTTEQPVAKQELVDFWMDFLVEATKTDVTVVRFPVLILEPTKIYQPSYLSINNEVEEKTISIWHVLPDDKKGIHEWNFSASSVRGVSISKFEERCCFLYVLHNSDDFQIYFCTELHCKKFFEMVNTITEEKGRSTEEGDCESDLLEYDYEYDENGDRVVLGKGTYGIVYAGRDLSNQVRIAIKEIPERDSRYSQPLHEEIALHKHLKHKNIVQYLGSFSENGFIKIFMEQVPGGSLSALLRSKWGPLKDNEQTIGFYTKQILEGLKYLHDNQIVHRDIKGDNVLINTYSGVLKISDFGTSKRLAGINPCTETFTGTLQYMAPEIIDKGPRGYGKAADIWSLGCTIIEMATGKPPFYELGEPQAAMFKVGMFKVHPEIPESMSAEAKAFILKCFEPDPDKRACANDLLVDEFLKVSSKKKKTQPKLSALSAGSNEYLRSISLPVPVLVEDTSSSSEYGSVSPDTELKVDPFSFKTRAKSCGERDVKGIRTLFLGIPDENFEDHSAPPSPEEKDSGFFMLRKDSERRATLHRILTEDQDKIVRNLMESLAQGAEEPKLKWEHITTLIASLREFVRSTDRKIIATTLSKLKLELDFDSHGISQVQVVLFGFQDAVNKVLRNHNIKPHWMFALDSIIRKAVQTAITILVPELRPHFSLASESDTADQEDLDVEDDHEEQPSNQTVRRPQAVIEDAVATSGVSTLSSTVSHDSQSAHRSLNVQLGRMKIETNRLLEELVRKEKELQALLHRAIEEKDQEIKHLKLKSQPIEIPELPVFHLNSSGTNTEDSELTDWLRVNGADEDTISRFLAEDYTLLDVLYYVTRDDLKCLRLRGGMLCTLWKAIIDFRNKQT

DAPK3 = DAPK3 (Homo sapiens, UniProt O43293)
IGF1R = IGF1R (Homo sapiens, UniProt P08069)

Chain of SNARK (Q9H093 whole entry): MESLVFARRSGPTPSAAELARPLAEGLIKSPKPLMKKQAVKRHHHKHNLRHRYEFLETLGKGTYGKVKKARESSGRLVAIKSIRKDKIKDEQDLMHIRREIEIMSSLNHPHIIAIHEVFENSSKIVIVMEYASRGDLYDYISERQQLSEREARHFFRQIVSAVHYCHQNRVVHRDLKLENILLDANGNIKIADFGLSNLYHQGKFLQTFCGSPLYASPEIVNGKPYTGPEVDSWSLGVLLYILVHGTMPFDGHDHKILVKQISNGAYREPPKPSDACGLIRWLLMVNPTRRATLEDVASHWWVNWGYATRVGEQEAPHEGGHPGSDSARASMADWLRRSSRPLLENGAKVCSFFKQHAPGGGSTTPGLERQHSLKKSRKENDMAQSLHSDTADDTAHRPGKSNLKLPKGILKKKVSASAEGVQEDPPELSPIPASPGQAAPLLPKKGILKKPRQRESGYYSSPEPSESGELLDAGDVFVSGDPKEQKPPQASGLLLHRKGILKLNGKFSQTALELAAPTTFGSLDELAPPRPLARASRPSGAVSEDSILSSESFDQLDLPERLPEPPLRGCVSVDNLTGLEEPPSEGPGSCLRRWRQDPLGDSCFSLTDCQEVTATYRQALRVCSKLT
Chain of DRAK1 (Q9UEE5 whole entry): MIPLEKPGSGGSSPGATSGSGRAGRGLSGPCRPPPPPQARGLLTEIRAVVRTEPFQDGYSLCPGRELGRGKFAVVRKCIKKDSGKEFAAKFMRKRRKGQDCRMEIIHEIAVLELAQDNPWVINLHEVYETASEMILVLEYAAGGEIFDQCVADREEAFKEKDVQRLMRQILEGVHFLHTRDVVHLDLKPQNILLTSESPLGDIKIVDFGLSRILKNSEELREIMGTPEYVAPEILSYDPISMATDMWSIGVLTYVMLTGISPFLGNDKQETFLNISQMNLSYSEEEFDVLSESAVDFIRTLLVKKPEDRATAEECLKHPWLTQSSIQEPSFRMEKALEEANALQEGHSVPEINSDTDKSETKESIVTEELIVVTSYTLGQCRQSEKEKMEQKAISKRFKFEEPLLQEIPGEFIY

CNc1ncc2cc(-c3ccc(-c4cccc(C)n4)cc3Cl)c(=O)n(C[C@H]3OC[C@H](N)CO3)c2n1 [compound 6, G-5555]
Percent Control (SNARK): 19% | Percent Control (DRAK1): 79% | Percent Control (DCAMKL1): 80% | Percent Control (GRK4): 100% | Percent Control (NDR1): 97% | Percent Control (FLT3(ITD,D835V)): 88% | Percent Control (PIK3CA(H1047Y)): 73% | Percent Control (BMPR1B): 95% | Percent Control (ARK5): 87% | Percent Control (BMPR1A): 90% | Percent Control (TRPM6): 100% | Percent Control (p38-alpha): 100% | Percent Control (MAP3K12): 100% | Percent Control (PKN2): 100% | Percent Control (TLK2): 100% | Percent Control (FGFR3): 100% | Percent Control (PIP5K1C): 100% | Percent Control (VRK2): 94% | Percent Control (AKT2): 100% | Percent Control (ASK1): 99% | Percent Control (DAPK3): 100% | Percent Control (IGF1R): 100%

Source: doi:10.1101/2021.04.08.439011v1 (biorxiv, 2021)
